# In patent publication US8519154B2, “Method for treatment of bronchial asthma” (Council of Scientific & Industrial Research, priority 2011, dated 2013):
# How the values were obtained:
# mice [1] = test: Pentobarbitone induced sleeping time; type: in vivo; conditions: pentobarbitone 50 mg/kg (i.p) alone
# Protocol: Compound I was administered to mice perorally. […] were administered with sodium pentobarbitone (50 mg/kg, ip). Sleeping time (No righting reflex) (in min) was determined for the control (untreated) and D8 treated animals [Montilla, M P., Cabo, J., Navarro, M C., Risco, S., Jimmenez R S., Aneires, J., The protective and curative action of Withania frutescens leaf extract against CCl4-induced hepatotoxicity. Phytother. Res. 4 (1990) 212-215].
# mice [2] = test: Electric shock induced convulsions; type: in vivo, Swiss mice
# Protocol: Convulsion were induced by a single electroshock (50 Hz in frequency, 0.5 ms pulse width, 50 mA current for 0.3 s) applied through bi-polar electrodes attached to the ear pinna on both side using a pulse generator (Ugo Basile, Italy). The convulsive activity (determined by loss of tonic extensor seizure) was recorded in control (untreated) and Compound I were treated (before electro-shock application) animals [Achliya, G S, Wadodkar, S G, Darle, A K., Evaluation of CNS activity of Bramhi Ghrita. Indian J. Pharmacol. 37 (2005) 33-36].
# Anti-convulsant activity was measured by electric shock induced seizure. Five Swiss mice were used for one dose of drug. Convulsion were induced by a single electroshock (50 Hz in frequency, 0.5 ms pulse width, 50 mA current for 0.3 s) applied through bi-polar electrodes attached to the ear pinna on both side by a pulse generator (Ugo Basile, Italy) Test drug were administered orally 60 min before electroshock application, and convulsive activity was determined by loss of tonic extensor seizure.
# PDE-4 = test: Phosphodiesterase 4 assay, [3H]cAMP SPA enzyme assay, enzyme preparation from rat heart; type: biochemical
# Protocol: For phosphodiesterase (PDE-4) assay, enzyme preparations were performed from rat heart (Ko et al 2004, Biochemical Pharmacology 68:2087-2094). Heart was excised from anesthetized rat and transfer into normal saline solution. Heart weighing 687 mg was taken and homogenized in 2.5 volumes of homogenization buffer containing 20 mM Tris-Cl, 50 mM NaCl, 2 mM EDTA, 0.1 mM PMSF, […], protease inhibitors 1 μg/μl. The homogenate was centrifuged at 500×g for 5 minute at 4° C. Then sup was taken for further centrifuged at 40,000×g for 30 minute (ultra centrifugation). After centrifugation supernatant was collected for phosphodiesterase assay. Protein concentration was estimated and for each assay, 2.5 μg protein (PDE enzyme preparation) was used. All compounds tested for PDE 4 activity were dissolved in DMSO.
# Phosphodiesterase 4 assay: Phosphodiesterase 4 assay was conducted with [^3H] cAMP SPA enzyme assay (GE Amersham, UK) using 2.5 μg enzyme preparation for each well. Into each well 60 μl water, 10 μl assay buffer supplied with the kit, 10 μl compound (inhibitor), 10 μl PDE enzyme or homogenizing buffer (blank) and […] radiolabel led cAMP ([^3H]cAMP, GE Amersham, UK) were added. To check activity of the enzyme without inhibitor (compound) 10 μl DMSO was added in place of inhibitor to a separate well. The reaction mixtures were incubated for […] at 30° C. The reaction was stopped by adding 50 μl SPA bead supplied with the kit. It was then mixed well and allowed to stand at room temperature for 20 min. Breakdown of cAMP in each tube was monitored by β counter. The reading in each tube was obtained in counts per minute (CPM). The reading of the blank tube (without enzyme) was subtracted from each tube to normalize the counts. The enzyme activity was calculated by considering the CPM reading without any inhibitor (compound) as 100.
structure (smiles),measurement,setting,value
CCCC(C)C1(CC)C(=O)NC(=O)NC1=O (centres unmarked) [Pentobarbitone],Sleeping Time (Minutes ± SEM),mice [1],75.6 ± 9.4 min
"CCC1(c2ccccc2)C(=O)NC(=O)NC1=O [Phenobarbitone, reference compound]",Convulsions Clonic,mice [2]; 30 mg/kg p.o.,0/5
same,Convulsions Tonic,mice [2]; 30 mg/kg p.o.,0/5
same,Mortality,mice [2]; 30 mg/kg p.o.,0/5
same,anti-convulsant activity,mice [2]; positive control,significant anti-convulsant activity
COc1cc(COC(C)=O)cc2c1[nH]c1ccccc12 [V],% of Inhibition,PDE-4; 0.1 μg/ml,0%
same,% of Inhibition,PDE-4; 1 μg/ml,11.80%
same,% of Inhibition,PDE-4; 10 μg/ml,44.2%
